Measurements reported in patent publication US20200121704A1, “METHODS FOR TREATING HYPERTENSION AND ARTERIAL STIFFNESS” (THE REGENTS OF THE UNIVERSITY OF COLORADO, A BODY CORPORATE, priority 2017, published 2020).

How the values were obtained:
Format in all cases: in vivo, human
[1] = Complete blood count (clinical laboratory values at end of each intervention phase)
Procedure: (§1) Sixty subjects were consented for this study. This study was conducted in the Integrative Physiology of Aging Laboratory and the Clinical and Translational Research Center (CTRC) at the University of Colorado Boulder. All blood assays were performed at either Boulder Community Hospital or the University of Colorado Denver Anschutz Medical Campus CTRC Core Laboratory. All testing sessions were performed after an overnight fast and 24-hour abstention from exercise and alcohol consumption. All subjects refrained from all prescription medications for 24 hours and over the counter medications for 48 hours prior to all testing visits.
(§2) Clinical laboratory values were obtained from blood samples collected at the end of each intervention phase in 21 subjects. Complete blood work was not obtained in three subjects due to a failed catheterization during at least one of the testing phases.

[2] = Comprehensive metabolic panel (blood chemistry, renal function, liver enzymes)
Procedure: as §1, §2

[3] = system: PBMCs; test: NAD+ and related metabolites in PBMCs
Text: Oral NR supplementation effectively elevated levels of NAD^+ in PBMCs by about 60% compared with placebo (mean change=6.2 pMol/mg protein) (Table 6). […] Of note, NR also elevated levels of nicotinic acid adenine dinucleotide (NAAD) nearly 5-fold above the placebo condition. […] Though not significant, we also observed an ˜1.5-fold increase in nicotinamide mononucleotide (NMN; mean change=0.72 pMol/mg protein), which may indicate the possible conversion of NR to NMN by nicotinamide riboside kinase (NRK) enzymes or further metabolism of NaM into NMN by nicotinamide phosphoribosyltransferase (NAMPT). […] Collectively, these findings indicate that chronic NR supplementation effectively stimulates NAD^+ metabolism in healthy middle-aged and older men and women.

[4] = NR condition, end of 6-week phase, mean ± SEM, 21 subjects
[5] = NR condition, end of 6-week phase, mean ± SEM, 21 subjects, *P < 0.05 vs. placebo
[6] = PBMCs, NR condition, mean ± SD, N = 21
[7] = PBMCs, NR condition, mean ± SD, N = 21, *p < 0.05
[8] = PBMCs, did not reach statistical significance

Q: Which results are given for NC(=O)c1ccc[n+]([C@@H]2O[C@H](CO)[C@@H](O)[C@H]2O)c1 [NR, nicotinamide riboside]?
A: HCT [1, 4]: 41.1 ± 0.7%; HGB [1, 4]: 13.9 ± 0.2 g/dL; MCH [1, 4]: 31.2 ± 0.3 pg; MCHC [1, 4]: 33.8 ± 0.2 g/dL; MCV [1, 4]: 92.3 ± 0.9 fL; RBC [1, 4]: 4.5 ± 0.1 10^6/μL; RDW [1, 4]: 13.0 ± 0.2%; WBC [1, 4]: 4.3 ± 0.3 10^3/μL; basophils absolute [1, 4]: 0.05 ± 0.01 10^3/μL; eosinophils absolute [1, 4]: 0.14 ± 0.03 10^3/μL; lymphocytes absolute [1, 4]: 1.18 ± 0.08 10^3/μL; lymphocytes relative [1, 4]: 29.5 ± 1.7%; monocytes absolute [1, 4]: 0.52 ± 0.08 10^3/μL; monocytes relative [1, 4]: 10.7 ± 0.6%; neutrophils absolute [1, 4]: 2.41 ± 0.19 10^3/μL; neutrophils relative [1, 4]: 55.3 ± 1.4%; platelet count [1, 4]: 206 ± 14 10^3/μL; MPV [1, 5]: 10.7 ± 0.2* fL; basophils relative [1, 5]: 1.3 ± 0.2* %; eosinophils relative [1, 5]: 2.9 ± 0.5* %; Difference between treatment conditions for hematology ([1]; NR vs placebo): No meaningful differences; All clinical laboratory values versus normal reference range ([1]; all clinical laboratory values (Tables 3-5), NR condition): remained within the normal reference range; Relevance of changes in mean platelet volume and relative distribution of white blood cell types ([1]; statistically significant difference between conditions, extremely low effect sizes): physiologically insignificant; ALT (SGPT) [2, 4]: 30.8 ± 2.4 IU/L; AST (SGOT) [2, 4]: 32.1 ± 1.5 IU/L; BUN [2, 4]: 17 ± 1 mg/dL; CO2 [2, 4]: 26 ± 1 mEq/L; albumin [2, 4]: 3.6 ± 0.1 g/dL; alk phosphatase [2, 4]: 63.4 ± 2.9 IU/L; calcium [2, 4]: 9.2 ± 0.1 mg/dL; chloride [2, 4]: 104 ± 1 mEq/L; creatinine [2, 4]: 0.9 ± 0.03 mg/dL; eGFR [2, 4]: 74 ± 3 ml/min/1.73 m^2; glucose [2, 4]: 87 ± 1 mg/dL; potassium [2, 4]: 4.2 ± 0.1 mEq/L; sodium [2, 4]: 139 ± 1 mEq/L; total bilirubin [2, 4]: 0.8 ± 0.1 mg/dL; total protein [2, 4]: 6.3 ± 0.1 g/dL; Difference between treatment conditions for blood chemistry (including markers of renal function and liver enzymes) ([2]; NR vs placebo): No meaningful differences; Elevation of NAAD above the placebo condition ([3]; PBMCs): ~5 fold; NR ([3]; PBMCs, NR condition, N = 21): <LOQ; 2-3 cAMP [3, 6]: 0.0 ± 0.0 pMol/mg protein; 3-5 cAMP [3, 6]: 0.0 ± 0.0 pMol/mg protein; ADP [3, 6]: 1133.8 ± 1880.4 pMol/mg protein; AMP [3, 6]: 770.8 ± 1884.3 pMol/mg protein; CDP [3, 6]: 67.7 ± 113.1 pMol/mg protein; CMP [3, 6]: 137.2 ± 366.0 pMol/mg protein; CTP [3, 6]: 41.0 ± 68.4 pMol/mg protein; Cytidine [3, 6]: 4.7 ± 6.6 pMol/mg protein; FAD [3, 6]: 10.2 ± 5.9 pMol/mg protein; GDP [3, 6]: 198.4 ± 329.0 pMol/mg protein; GMP [3, 6]: 1010.1 ± 2114.8 pMol/mg protein; GTP [3, 6]: 327.1 ± 119.1 pMol/mg protein; Guanosine [3, 6]: 0.5 ± 1.5 pMol/mg protein; NADP [3, 6]: 8.9 ± 8.7 pMol/mg protein; NMN [3, 6]: 1.2 ± 3.3 pMol/mg protein; NaM [3, 6]: 383.8 ± 282.7 pMol/mg protein; UDP [3, 6]: 270.0 ± 420.7 pMol/mg protein; UMP [3, 6]: 1113.7 ± 2374.2 pMol/mg protein; UTP [3, 6]: 340.3 ± 150.1 pMol/mg protein; Uridine [3, 6]: 278.3 ± 718.4 pMol/mg protein; cCMP [3, 6]: 1.8 ± 8.4 pMol/mg protein; cGMP [3, 6]: 0.0 ± 0.0 pMol/mg protein; ATP [3, 7]: 2435.7 ± 1230.3* pMol/mg protein; Adenosine [3, 7]: 14.4 ± 9.7* pMol/mg protein; NAAD [3, 7]: 1.4 ± 2.2* pMol/mg protein; NAD+ [3, 7]: 16.2 ± 14.1* pMol/mg protein; ATP mean change ([3]; PBMCs, NR vs placebo): 699 pMol/mg protein; Mean concentration of adenosine ([3]; PBMCs, NR vs placebo): increases in the mean concentration; Mean concentration of nicotinamide (NaM) ([3]; PBMCs, NR vs placebo): elevated the mean concentration of nicotinamide (NaM), but this was not statistically significant; Mean level of NADP+ ([3]; PBMCs, NR vs placebo): increased, but did not reach statistical significance; NAD+ mean change ([3]; PBMCs, NR vs placebo): 6.2 pMol/mg protein; NMN mean change ([3]; PBMCs, NR vs placebo): 0.72 pMol/mg protein; Levels of adenosine diphosphate (ADP) [3, 8]: tended to raise; Levels of adenosine monophosphate (AMP) [3, 8]: tended to raise; Increase in NMN ([3]; PBMCs, not significant): ~1.5 fold; Elevation of NAD+ levels in PBMCs compared with placebo ([3]; oral NR supplementation): about 60%
